Data published in US20110124609A1, “Method of Preventing Type I Diabetes” (Wisconsin Alumni Research Foundation, priority 2009, published 2011).
“Also recorded” adds a separate entry of the source.

Legend:
[1] = 2AMD study: serum calcium analysis (atomic absorption); type: in vivo, mouse; details: 200 pg and 300 pg 2AMD per day in diet; NOD mice; over 30 weeks (FIG. 2)
Description: Diet. Breeding pairs were fed LabDiet™ Mouse Diet 5010 ad libitum (PMI Nutrition International, St. Louis, Mo.). Experimental mice were fed LabDiet™ Mouse Diet 5K52 meal form (PMI Nutrition International, St. Louis, Mo.). […] Serum Calcium Analysis. Blood was collected from maxillary cheek of each mouse weekly from 8 weeks to 200 days of age.

NOD mice [2] = experiment: 2AMD Type 1 Diabetes Prevention Study: diabetes incidence in NOD mice; type: in vivo, mouse; details: female NOD mice
Procedure: Diet. Breeding pairs were fed LabDiet™ Mouse Diet 5010 ad libitum (PMI Nutrition International, St. Louis, Mo.). Experimental mice were fed LabDiet™ Mouse Diet 5K52 meal form (PMI Nutrition International, St. Louis, Mo.). […] At eight weeks of age, mice were placed on 1 of 4 experimental diets: 1) chow, 2) 5010+50 ng 1,25(OH)2D3, or 3) 5010+200 pg and 4) 5010+300 pg 2AMD. In diets/treatments containing 1,25(OH)2D3 or 2AMD, the hormone was added to 1% Wesson® oil and mixed into the diet.
(§1) Evaluation of Diabetic Status. […] Whole blood was centrifuged to obtain serum.

[3] = 2AMD study: body weight of NOD mice; type: in vivo, mouse; details: 200 pg and 300 pg 2AMD per day in diet, over 200 days (FIG. 3)
Description: Diet. Breeding pairs were fed LabDiet™ Mouse Diet 5010 ad libitum (PMI Nutrition International, St. Louis, Mo.). Experimental mice were fed LabDiet™ Mouse Diet 5K52 meal form (PMI Nutrition International, St. Louis, Mo.). […] Evaluation of Diabetic Status. […] Whole blood was centrifuged to obtain serum.

NOD mouse = details: of 1,25-(OH)2D3, Zella et al., 2003; cited from earlier work
NOD mice [4] = experiment: 2MD Type 1 Diabetes Prevention Study: diabetes incidence in NOD mice; type: in vivo, mouse; details: for Incidence of Type 1 Diabetes: female NOD mice
Description: as §1

cellular differentiation = details: background, 19-nor-analogs; cited from earlier work
[5] = background, 19-nor-analogs; cited from earlier work
[6] = 2MD study: body weight of NOD mice; details: for Weights: mean, n = 12, in g (unit assumed)
Procedure: Diet. […] At eight weeks of age, mice were then provided 1 of 4 experimental diets: diet 11 only or diet 11+50 ng 1,25(OH)2D3, diet 11 plus 400 ng 2 MP or diet 11+500 pg 2MD. All purified diets were supplemented with vegetable oil containing fat soluble vitamins A, E, D and K (Suda et al., 1970, J. Nutr. 100: 1049-1052 [diet 11]). In diets containing 1,25(OH)2D3, 2 MP or 2MD, the compounds were added to 1% Wesson® oil and mixed into the purified diet. Diets were fed in agar form (Hayes et al., 1987, J. Nutr. 117:857-865) at 3.5 g food/mouse/day and were replaced three times per week.
Evaluation of Diabetic Status. All experimental mice were weighed weekly and urinalysis was performed weekly starting at 10 weeks of age—Diastix® (Bayer, Elkhart, Ind.) were used to determine glucose levels. If a Diastix® reading was above 1000 mg/dl, the mice were bled from maxillary cheek following a four-hour fast. Whole blood was centrifuged to obtain serum. Concentration of glucose in serum was measured using a enzymatic-colorimetric assay (Glucose Liquicolor®, Stanbio Laboratory, Boerne, Tex.) followed by spectrophotometric analysis. Animals that had two fasting glucose analysis above 300 mg/dl were diagnosed as diabetic and sacrificed via CO2 asphyxiation.

[7] = 2MD study: serum calcium analysis (atomic absorption); details: for serum calcium: NOD mice; for Serum Calcium Levels: mean, n = 12, in mg/dL (unit assumed)
Procedure: Diet. […] Female pups were weaned at three weeks and placed immediately on a purified diet (Suda et al., 1974, J. Nutr. 100: 1049-1052). At eight weeks of age, mice were then provided 1 of 4 experimental diets: diet 11 only or diet 11+50 ng 1,25(OH)2D3, diet 11 plus 400 ng 2 MP or diet 11+500 pg 2MD. All purified diets were supplemented with vegetable oil containing fat soluble vitamins A, E, D and K (Suda et al., 1970, J. Nutr. 100: 1049-1052 [diet 11]). In diets containing 1,25(OH)2D3, 2 MP or 2MD, the compounds were added to 1% Wesson® oil and mixed into the purified diet. Diets were fed in agar form (Hayes et al., 1987, J. Nutr. 117:857-865) at 3.5 g food/mouse/day and were replaced three times per week.
Serum Calcium Analysis. Blood was collected from maxillary cheek of each mouse at 6, 8, 9, 14.3, 15.3 and 28.6 weeks of age. Serum was separated by centrifugation and diluted 1:40 in a 0.1% LaCl2 solution. Calcium concentration was determined by atomic absorption spectrometry (Spectrometer 3110®, Perkin Elmer, Norwalk, Conn.).

[8] = Group 8, 0.5 ng 2MD, age 6 weeks
[9] = Group 8, 0.5 ng 2MD, age 8 weeks
[10] = Group 8, 0.5 ng 2MD, age 9 weeks
[11] = Group 8, 0.5 ng 2MD, age 14.3 weeks
[12] = Group 8, 0.5 ng 2MD, age 15.3 weeks
[13] = Group 8, 0.5 ng 2MD, age 28.6 weeks
[14] = Group 10, 400 ng 2MP, age 6 weeks
[15] = Group 10, 400 ng 2MP, age 8 weeks
[16] = Group 10, 400 ng 2MP, age 9 weeks
[17] = Group 10, 400 ng 2MP, age 14.3 weeks
[18] = Group 10, 400 ng 2MP, age 15.3 weeks
[19] = Group 10, 400 ng 2MP, age 28.6 weeks

## 2α-methyl-19-nor-20(S)-1α,25-dihydroxyvitamin D3 [2AMD]
[1]
  serum calcium / hypercalcemia: no statistically significant increase in serum calcium; also recorded: without hypercalcemia
NOD mice [2]; 200 pg and 300 pg 2AMD daily in diet, versus no treatment
  diabetes incidence at 200 days (FIG. 1): statistically significant reduced incidence of diabetes
NOD mice [2]; 200 pg and 300 pg 2AMD per day in 5010 diet, from 8 weeks to 200 days of age
  Type 1 diabetes disease incidence: 8%
[3]
  body weight: no statistically significant change in body weight; also recorded: not altered

## C=C1/C(=C\C=C2/CCC[C@]3(C)[C@@H]([C@H](C)CCCC(C)(C)O)CC[C@@H]23)C[C@@H](O)C[C@@H]1O [1,25(OH)2D3, 1α,25-dihydroxy-vitamin D3]
NOD mouse
  prevention of Type 1 diabetes: completely prevent Type 1 diabetes
NOD mice [2]; 50 ng 1,25(OH)2D3 per day in 5010 diet
  protection against T1DM: completely protected
NOD mice [4]; 50 ng per day in diet 11, 200 days, n = 24
  Incidence of Type 1 Diabetes: 4.2%
NOD mice [4]; 50 ng/day 1,25(OH)2D3 in diet 11, NOD mice
  prevention of diabetes: prevented diabetes

## C[C@H](CCCC(C)(C)O)[C@H]1CC[C@H]2/C(=C/C=C3C[C@@H](O)C[C@H](O)C3)CCC[C@]12C [1α,25-dihydroxy-19-nor-vitamin D3]
Cellular differentiation
  potency for inducing cellular differentiation: high potency
[5]
  calcium mobilizing activity: very low calcium mobilizing activity

## C=C1[C@H](O)CC(=C/C=C2\CCC[C@@]3(C)C2CCC3[C@@H](C)CCCC(C)(C)O)C[C@H]1O (stereo partly drawn) [2MD, 2-methylene-19-nor-20(S)-1,25-dihydroxyvitamin D3]
[6]; 0.5 ng 2MD per day in diet 11, NOD mice, over 200 days
  body weight (FIG. 5): no statistically significant change in body weight
[6]; Group 8, 0.5 ng 2MD, age 3 weeks
  Weights: 13.33
[6]; [8]
  Weights: 21.87
[6]; [9]
  Weights: 23.78
[6]; [10]
  Weights: 24.94
[6]; [11]
  Weights: 27.85
[6]; [12]
  Weights: 27.82
[6]; [13]
  Weights: 29.51
NOD mice [4]; 0.5 ng per day in diet 11, 200 days, n = 12
  Incidence of Type 1 Diabetes: 0.0%
NOD mice [4]; 0.5 ng/day 2MD in diet 11, NOD mice, 200 days
  prevention of diabetes / diabetes incidence (FIG. 4): statistically significant reduced incidence of diabetes; also recorded: prevented diabetes
[7]; 0.5 ng 2MD per day in diet 11, over 30 weeks (FIG. 6)
  serum calcium: no statistically significant increase in serum calcium; also recorded: moderate elevation of calcium
[7]; [8]
  Serum Calcium Levels: 11.42
[7]; [9]
  Serum Calcium Levels: 11.45
[7]; [10]
  Serum Calcium Levels: 11.55
[7]; [11]
  Serum Calcium Levels: 11.52
[7]; [12]
  Serum Calcium Levels: 11.33
[7]; [13]
  Serum Calcium Levels: 11.37

## C=C1C(O)CC(=CC=C2CCCC3(C)C2CCC3C(C)C)CC1O (stereo not drawn) [2MP, 1α-hydroxy-2-methylene-19-nor-homopregnacalciferol, reference compound]
[6]; Group 10, 400 ng 2MP, age 3 weeks
  Weights: 13.60
[6]; [14]
  Weights: 22.03
[6]; [15]
  Weights: 23.74
[6]; [16]
  Weights: 24.63
[6]; [17]
  Weights: 26.30
[6]; [18]
  Weights: 26.81
[6]; [19]
  Weights: 27.64
NOD mice [4]; 400 ng 2 MP per day in diet 11, NOD mice
  protection against diabetes: no protection against diabetes
NOD mice [4]; 400 ng per day in diet 11, 200 days, n = 12
  Incidence of Type 1 Diabetes: 33.0%
[7]; 400 ng 2 MP per day in diet 11
  serum calcium: moderate elevation of calcium
[7]; [14]
  Serum Calcium Levels: 11.57
[7]; [15]
  Serum Calcium Levels: 11.57
[7]; [16]
  Serum Calcium Levels: 11.55
[7]; [17]
  Serum Calcium Levels: 11.62
[7]; [18]
  Serum Calcium Levels: 11.77
[7]; [19]
  Serum Calcium Levels: 11.66
